Measurements: patent US20100081679A1, “DIAMINOPYRIMIDINES AS FUNGICIDES” (Bayer CropScience AG, priority 2007, published 2010)
Marks after values point to notes of the source that are not given here.

Experiment: logP determination via retention times, calibrated with unbranched alkan-2-ones
Assay type: physicochemical
Settings: HPLC on reversed-phase C 18, EEC Directive 79/831 Annex V.A8; method *: 40° C., 0.1% aqueous formic acid and acetonitrile, linear gradient 10% to 95% acetonitrile

Row | Structure (SMILES) | logP
1 | CSc1cc(Nc2ncc(Cl)c(NCC3CC3)n2)ccc1C [compound 547] | 2.45*
2 | FC(F)C(F)(F)Oc1cccc(Nc2ncc(Br)c(NCC3CC3)n2)c1 [compound 493] | 3.1*
3 | CN(C)C(=O)c1ccc(Nc2ncc(Cl)c(NCC3CC3)n2)cc1 [compound 509] | 1.59*
4 | CC(=O)c1cc(Nc2ncc(Br)c(NCC3CC3)n2)ccc1Cl [compound 487] | 2.67*
5 | O=S(=O)(Cc1ccc(Nc2ncc(Cl)c(NC3CC3)n2)cc1)N1CCCCC1 [compound 537] | 2.17*
6 | CC1CC(C)CN(c2cccc(Nc3ncc(Cl)c(NC4CC4)n3)c2)C1 (stereo not shown) [compound 528] | 2.46*

Same assay, conditions: HPLC on reversed-phase C 18, method **: 43° C.; 0.1% aqueous phosphoric acid and acetonitrile; linear gradient 10% to 95% acetonitrile

Row | Structure (SMILES) | logP
7 | COCc1cccc(Nc2ncc(Cl)c(N(C)CC3CC3)n2)c1 [compound 965] | 2.71**

Same assay, conditions: HPLC on reversed-phase C18, method **: 43° C.; mobile phase 0.1% aqueous phosphoric acid and acetonitrile; linear gradient 10% to 95% acetonitrile

Row | Structure (SMILES) | logP
8 | CC(C)(C)NS(=O)(=O)Cc1cccc(Nc2ncc(Cl)c(NC3CC3)n2)c1 [compound 327] | 2.05**

Same assay, conditions: HPLC on reversed-phase C18, method *: 40° C., 0.1% aqueous formic acid and acetonitrile, linear gradient 10% to 95% acetonitrile

Row | Structure (SMILES) | logP
9 | CC(=O)N(C)c1ccc(Nc2ncc(Cl)c(NCC3CC3)n2)cc1 [compound 671] | 1.58*
10 | Oc1ccc(Nc2ncc(Br)c(NC3CC3)n2)cc1 [compound 114] | 1.17*
11 | COc1ccc(Nc2ncc(Cl)c(NCC3CC3)n2)cc1 [compound 669] | 1.73*
12 | N#CCc1cccc(Nc2ncc(C(F)(F)F)c(NC3CC3)n2)c1 [compound 976] | 2.56*
13 | FC(F)Oc1ccccc1Nc1ncc(Cl)c(NC2CC2)n1 [compound 943] | 2.36*
14 | CC(C)c1cccc(Nc2ncc(C(F)(F)F)c(NC3CC3)n2)c1 [compound 973] | 4.14*
15 | CC(=O)c1cc(Nc2ncc(Cl)c(NC3CC3)n2)ccc1O [Example 101] | 1.65*
16 | CSc1ccccc1Nc1ncc(Cl)c(NC2CC2)n1 [compound 880] | 2.18*
17 | Cc1cccc(C)c1Nc1ncc(Cl)c(NCC2CC2)n1 [compound 682] | 1.87*
18 | CC(=O)c1ccc(Nc2ncc(Cl)c(NCC3CC3)n2)cc1 [compound 678] | 2.13*
19 | OC(c1cccc(Nc2ncc(C(F)(F)F)c(NCC3CC3)n2)c1)C(F)(F)F (stereo not shown) [compound 667] | 2.82*
20 | CCOC(=O)Cc1ccc(Nc2ncc(Br)c(NC3CC3)n2)cc1 [compound 758] | 2.06*
21 | CC(C)c1ccc(Nc2ncc(Cl)c(NC3CC3)n2)cc1 [compound 729] | 2.54*
22 | Brc1cnc(Nc2ccc(OCCN3CCCCC3)cc2)nc1NC1CC1 [compound 117] | 1.07*
23 | Cc1cc(O)ccc1Nc1ncc(Br)c(NC2CC2)n1 [compound 112] | 1.21*
24 | CNS(=O)(=O)Cc1ccc(Nc2ncc(Br)c(NC3CC3)n2)cc1 [compound 757] | 1.51*
25 | COC(=O)c1ccc(Nc2ncc(C(F)(F)F)c(NC3CC3)n2)cc1 [compound 971] | 3.21*
26 | CCN(CC)C(=O)c1cccc(Nc2ncc(Cl)c(NC3CC3)n2)c1 [compound 701] | 1.86*
27 | Cc1ccc(C)c(Nc2ncc(Cl)c(NC3CC3)n2)c1 [compound 935] | 1.83*
28 | CC(C)(C)Sc1ccc(Nc2ncc(Cl)c(NC3CC3)n2)cc1 [compound 152] | 3.73*

Same assay, conditions: HPLC on reversed-phase C18, method *: 40° C.; mobile phase 0.1% aqueous formic acid and acetonitrile; linear gradient 10% to 95% acetonitrile

Row | Structure (SMILES) | logP
29 | CCOC(=O)C1(Nc2nc(Nc3ccccc3)ncc2Cl)CC1 [compound 315] | 2.17*
30 | CCCNS(=O)(=O)Cc1cccc(Nc2ncc(Cl)c(NC3CC3)n2)c1 [compound 335] | 1.81*
31 | CC(C)(C)OC(=O)NCc1ccc(Nc2ncc(Br)c(NC3CC3)n2)cc1 [compound 329] | 2.02*
32 | COC(c1cccc(Nc2ncc(Br)c(NC3CC3)n2)c1)C(F)(F)F (stereo not shown) [compound 333] | 2.82*
33 | FC(F)(F)Oc1cccc(Nc2ncc(Cl)c(NC3CC3)n2)c1 [compound 300] | 3.18*
34 | COc1cc(Nc2ncc(Cl)c(NC3CC3)n2)ccc1NC(C)=O [compound 280] | 1.18*
35 | CCOC(=O)c1cccc(Nc2ncc(Cl)c(NC3CC3)n2)c1 [compound 292] | 2.26*
36 | FC(F)(F)c1ccc(Nc2ncc(Cl)c(NC3CC3)n2)cc1 [compound 277] | 3.14*

Same assay, conditions: HPLC on reversed-phase C18 column (EEC Directive 79/831 Annex V.A8); method *: 40° C.; 0.1% aqueous formic acid and acetonitrile; linear gradient 10% to 95% acetonitrile

Row | Structure (SMILES) | logP
37 | COC(=O)c1cccc(Nc2ncc(Cl)c(NC3CC3)n2)c1 [compound 196] | 1.9*
38 | CN1C(=O)COc2cc(Nc3ncc(Cl)c(NC4CC4)n3)ccc21 [compound 179] | 1.47*

Same assay, conditions: HPLC reversed-phase C 18, EEC Directive 79/831 Annex V.A8; method **: 43° C., 0.1% aqueous phosphoric acid and acetonitrile, linear gradient 10% to 95% acetonitrile

Row | Structure (SMILES) | logP
39 | COCc1cccc(Nc2nc(C)c(Cl)c(NC3CC3)n2)c1 [compound 839] | 1.67**
40 | Brc1cnc(Nc2cccc(I)c2)nc1NC1CC1 [compound 860] | 3.34**

Same assay, conditions: HPLC reversed-phase C 18, EEC Directive 79/831 Annex V.A8; method *: 40° C., 0.1% aqueous formic acid and acetonitrile, linear gradient 10% to 95% acetonitrile

Row | Structure (SMILES) | logP
41 | COCc1cccc(Nc2ncc(I)c(NC3CC3)n2)c1 [compound 847] | 1.86*
42 | OC(c1cccc(Nc2ncc(Br)c(NC3CC3)n2)c1)C(F)(F)F (stereo not shown) [compound 798] | 1.94*
43 | CSC(C)c1cccc(Nc2ncc(Cl)c(NC3CC3)n2)c1 (stereo not shown) [compound 807] | 2.52*
44 | COc1cc(CC#N)ccc1Nc1ncc(Cl)c(NC2CC2)n1 [compound 817] | 1.82*
45 | COc1cc(CC#N)ccc1Nc1ncc(Br)c(NC2CC2)n1 [compound 818] | 1.99*

Same assay, conditions: method **: HPLC reversed-phase C 18, 43° C., 0.1% aqueous phosphoric acid and acetonitrile, linear gradient 10% to 95% acetonitrile

Row | Structure (SMILES) | logP
46 | CN(C)S(=O)(=O)c1ccc(Nc2ncc(Cl)c(NCC3CC3)n2)cc1 [compound 14] | 2.36**
47 | CCCCNS(=O)(=O)c1ccc(Nc2ncc(Cl)c(NCC3CC3)n2)cc1 [compound 23] | 2.75**
48 | CC(C)c1ccc(Nc2ncc(Cl)c(NCC3CC3)n2)cc1 [Example 54] | 2.62**
49 | NS(=O)(=O)c1ccc(Nc2ncc(Cl)c(NC3CC3)n2)cc1 [compound 25] | 1.37**

Same assay, conditions: method **: HPLC reversed-phase C 18, temperature 43° C.; mobile phase 0.1% aqueous phosphoric acid and acetonitrile; linear gradient 10% to 95% acetonitrile

Row | Structure (SMILES) | logP
50 | CC(C)NC(=O)Nc1ccc(Nc2ncc(Cl)c(NC3CC3)n2)cc1 [compound 632] | 1.32**
51 | CNC(=O)c1ccc(Nc2ncc(C(F)(F)F)c(NC3CC3)n2)cc1 [compound 651] | 1.81**

Same assay, conditions: method **: HPLC, reversed-phase C 18, 43° C., mobile phase 0.1% aqueous phosphoric acid and acetonitrile, linear gradient from 10% to 95% acetonitrile

Row | Structure (SMILES) | logP
52 | Clc1cnc(Nc2ccccc2)nc1NC1CC1c1ccccc1 (stereo not shown) [compound 1014] | 2.77**

Same assay, conditions: method *: HPLC reversed-phase C18, 40° C., 0.1% aqueous formic acid and acetonitrile, linear gradient 10% to 95% acetonitrile

Row | Structure (SMILES) | logP
53 | CNC(=O)Oc1cccc(Nc2ncc(Br)c(NCC3CC3)n2)c1 [compound 429] | 1.68*
54 | Oc1ccc(Nc2ncc(Br)c(NCC3CC3)n2)cc1F [compound 464] | 1.53*
55 | CCCCCCCCSc1cccc(Nc2ncc(Cl)c(NC3CC3)n2)c1.Cc1ccc(S(=O)(=O)O)cc1 [compound 442] | 6.16*
56 | CCCNS(=O)(=O)Cc1ccc(Nc2ncc(Cl)c(NC3CC3)n2)cc1 [compound 371] | 1.79*
57 | COC(=O)Nc1ccc(Nc2ncc(C)c(NC3CC3)n2)cc1 [compound 446] | 1.06*
58 | COC(=O)c1ccc(Nc2ncc(Cl)c(NC3CC3)n2)cc1 [Example 37] | 2.23*
59 | CC(C)(C)C(=O)Nc1cccc(Nc2ncc(Cl)c(NC3CC3)n2)c1 [Example 91] | 1.98*
60 | O=C(Nc1cccc(Nc2ncc(Cl)c(NC3CC3)n2)c1)C1CC1 [Example 84] | 1.62*
61 | CSc1cccc(Nc2ncc(Cl)c(NC3CC3)n2)c1 [Example 74] | 2.21*
62 | CC(=O)c1ccc(Nc2ncc(Cl)c(NC3CC3)n2)cc1 [compound 44] | 1.99*
63 | Brc1cnc(Nc2ccc3c(c2)OCO3)nc1NCC1CC1 [compound 418] | 1.83*
64 | COC(=O)c1ccc(Nc2ncc(Cl)c(NC3CC3)n2)cc1Cl [compound 378] | 2.91*

Same assay, conditions: method *: HPLC reversed-phase C 18, temperature 40° C.; mobile phase 0.1% aqueous formic acid and acetonitrile; linear gradient 10% to 95% acetonitrile

Row | Structure (SMILES) | logP
65 | O=C1CCCN1c1cccc(Nc2ncc(I)c(NC3CC3)n2)c1 [compound 637] | 1.6*
66 | COC(=O)Nc1cccc(Nc2ncc(C#N)c(NC3CC3)n2)c1 [compound 612] | 2.06*
67 | CNC(=O)c1ccc(Nc2ncc(C(F)(F)F)c(NC3CC3)n2)cc1 [compound 651] | 1.78*;
68 | CN(C)S(=O)(=O)c1ccc(Nc2ncc(F)c(NC3CC3)n2)cc1 [compound 578] | 1.68*
69 | CNC(=O)c1ccc(Nc2ncc(F)c(NC3CC3)n2)cc1 [compound 584] | 1.05*
70 | Cc1cnc(Nc2cccc(N3CCCC3=O)c2)nc1NC1CC1 [compound 567] | 1.14*
71 | O=S(=O)(c1cccc(Nc2ncc(F)c(NC3CC3)n2)c1)N1CCCCC1 [compound 588] | 1.61*
72 | COC(=O)Cc1cccc(Nc2ncc(C#N)c(NC3CC3)n2)c1 [compound 606] | 2.39*
73 | CN(C)S(=O)(=O)c1cccc(Nc2ncc(C#N)c(NC3CC3)n2)c1 [compound 617] | 2.36*

Same assay, conditions: method *: HPLC, reversed-phase C 18, 40° C., mobile phase 0.1% aqueous formic acid and acetonitrile, linear gradient from 10% to 95% acetonitrile

Row | Structure (SMILES) | logP
74 | COCc1cc(Nc2ncc(Cl)c(NC3CC3)n2)ccc1OC [compound 1050] | 1.55*
75 | O=C(c1cccc(Nc2ncc(Cl)c(NC3CC3)n2)c1)N1CCC1 [compound 1063] | 1.43*
76 | Brc1cnc(Nc2ccccc2)nc1NC1CC1 [compound 1069] | 2.65*
77 | COCCN(C)C(=O)c1cccc(Nc2ncc(Cl)c(NC3CC3)n2)c1 [compound 1064] | 1.46*
78 | OCc1cc(Nc2ncc(Cl)c(NC3CC3)n2)ccc1F [compound 1047] | 1.25*
79 | CCN(CC)C(=O)c1ccc(Nc2ncc(Cl)c(NC3CC3)n2)cc1 [compound 984] | 1.84*
